Source: patent US20250101436A1, “APTAMERS AND SMALL MOLECULE LIGANDS” (MeiraGTx UK II Limited, priority 2021, published 2025)

System: luciferase gene expression in HEK 293 cells in response to Comp. 004
Test: Screen of riboswitch constructs with 12C6-1 variant aptamers (libraries N1-N5) against Comp. 004, luciferase in HEK 293 cells
Format: cell-based, human
In short: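 Riboswitch constructs carrying 12C6-1 aptamer variants, randomized in J2-4, J2-3/J3-3a/J3a-2/P3, L3a, J4-5/J5-4/P4 or L5 regions (libraries N1-N5), cloned into an intron-exon-intron cassette driving luciferase. Screened in HEK 293 cells with 25 µM Comp. 004; read-out is fold induction of gene expression versus parent Luci-12C6-1.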

[1] = library N5 variant aptamers (L5, X16-X21 randomized) of 12C6-1 in riboswitch constructs, in response to Comp. 004 treatment, HEK 293 cells
[2] = library N2 variant aptamers (J2-3, P3-J3-3a, J3a-2 randomized) of 12C6-1 in riboswitch constructs, in response to Comp. 004, HEK 293 cells
[3] = library N1 (J2-4), HEK 293, 25 M [sic] Comp. 004

Row | Substance | Fold (induction of luciferase gene expression) [1] | other results
1 | N5_1E2 (CTGGGGAGTCCT; chemistry not given here) | 728.6 fold | –
2 | N5_5B7 (CTGGGGAGTCCT; chemistry not given here) | 1317.2 fold | –
3 | N2_2H2 (CTGGGGAGTCCTTCATGC; chemistry not given here) | – | Fold (induction of luciferase gene expression) [2]: 0.8 fold
4 | N5_7D3 (DNA CTGGGGAGTCCT; chemistry not given here) | 1075.7 fold | –
5 | N5_2C2 (CTGGGGAGTCCT; chemistry not given here) | 894.7 fold | –
6 | N2_2G11 (DNA CTGGGGAGTCCTTCATGC; chemistry not given here) | – | Fold (induction of luciferase gene expression) [2]: 0.9 fold
7 | N5_7D1 (DNA CTGGGGAGTCCT; chemistry not given here) | 909.3 fold | –
8 | N5_7E2 (DNA CTGGGGAGTCCT; chemistry not given here) | 1234.5 fold | –
9 | N2_2H8 (CTGGGGAGTCCTTCATGC; chemistry not given here) | – | Fold (induction of luciferase gene expression) [2]: 1.4 fold
10 | N5_7A4 (CTGGGGAGTCCT; chemistry not given here) | 988.3 fold | –
11 | N5_5E4 (CTGGGGAGTCCT; chemistry not given here) | 1116.0 fold | –
12 | N5_8A9 (DNA CTGGGGAGTCCT; chemistry not given here) | 1090.4 fold | –
13 | N2_2B10 (CTGGGGAGTCCTTCATGC; chemistry not given here) | – | Fold (induction of luciferase gene expression) [2]: 1.1 fold
14 | N1_2H1 (CTGGGGAGTCCTTCATGCGGGGC; chemistry not given here) | – | Fold (induction of luciferase gene expression) [3]: 9.41 fold
15 | N2_2G7 (DNA CTGGGGAGTCCTTCATGC; chemistry not given here) | – | Fold (induction of luciferase gene expression) [2]: 1.0 fold
16 | N5_1A3 (CTGGGGAGTCCT; chemistry not given here) | 228.1 fold | –
17 | N5_7F2 (DNA CTGGGGAGTCCT; chemistry not given here) | 937.4 fold | –
18 | N5_9G7 (DNA CTGGGGAGTCCT; chemistry not given here) | 937.7 fold | –
19 | N5_3F9 (CTGGGGAGTCCT; chemistry not given here) | 909.7 fold | –
20 | N5_9B8 (DNA CTGGGGAGTCCT; chemistry not given here) | 792.8 fold | –
21 | N2_2C6 (CTGGGGAGTCCTTCATGC; chemistry not given here) | – | Fold (induction of luciferase gene expression) [2]: 0.9 fold
22 | N5_3F10 (CTGGGGAGTCCT; chemistry not given here) | 894.3 fold | –
23 | N5_6B4 (CTGGGGAGTCCT; chemistry not given here) | 1435.7 fold | –
24 | N5_1E8 (CTGGGGAGTCCT; chemistry not given here) | 691.8 fold | –
25 | N1_2H7 (CTGGGGAGTCCTTCATGCGGGGC; chemistry not given here) | – | Fold (induction of luciferase gene expression) [3]: 1.16 fold
26 | N5_2D10 (CTGGGGAGTCCT; chemistry not given here) | 884.5 fold | –

Row | Substance | Fold (induction of luciferase gene expression) [1] | other results
27 | N5_1B8 (CTGGGGAGTCCT; chemistry not given here) | 645.1 fold | –
28 | N5_9G5 (DNA CTGGGGAGTCCT; chemistry not given here) | 725.3 fold | –
29 | N5_4H7 (CTGGGGAGTCCT; chemistry not given here) | 714.3 fold | –
30 | N5_1H4 (CTGGGGAGTCCT; chemistry not given here) | 482.5 fold | –
31 | N5_1B11 (CTGGGGAGTCCT; chemistry not given here) | 477.1 fold | –
32 | N5_3D8 (CTGGGGAGTCCT; chemistry not given here) | 824.4 fold | –
33 | N5_7C2 (DNA CTGGGGAGTCCT; chemistry not given here) | 627.0 fold | –
34 | N2_2A8 (CTGGGGAGTCCTTCATGC; chemistry not given here) | – | Fold (induction of luciferase gene expression) [2]: 1.0 fold
35 | N2_2H7 (CTGGGGAGTCCTTCATGC; chemistry not given here) | – | Fold (induction of luciferase gene expression) [2]: 0.8 fold
36 | N5_14H11 (CTGGGGAGTCCT; chemistry not given here) | 918.4 fold | –
37 | N2_2F4 (DNA CTGGGGAGTCCTTCATGC; chemistry not given here) | – | Fold (induction of luciferase gene expression) [2]: 1.2 fold
38 | N5_6A8 (CTGGGGAGTCCT; chemistry not given here) | 1252.2 fold | –
39 | N2_2A7 (CTGGGGAGTCCTTCATGC; chemistry not given here) | – | Fold (induction of luciferase gene expression) [2]: 0.9 fold
40 | N5_7B5 (CTGGGGAGTCCT; chemistry not given here) | 779.9 fold | –
41 | N5_14B9 (CTGGGGAGTCCT; chemistry not given here) | 897.5 fold | –
42 | N2_2D2 (DNA CTGGGGAGTCCTTCATGC; chemistry not given here) | – | Fold (induction of luciferase gene expression) [2]: 1.1 fold
43 | N5_1C4 (CTGGGGAGTCCT; chemistry not given here) | 665.0 fold | –
44 | N1_2H9 (CTGGGGAGTCCTTCATGCGGGGC; chemistry not given here) | – | Fold (induction of luciferase gene expression) [3]: 1.91 fold
45 | N5_7E1 (DNA CTGGGGAGTCCT; chemistry not given here) | 1733.0 fold | –
46 | N1_2D9 (CTGGGGAGTCCTTCATGCGGGGC; chemistry not given here) | – | Fold (induction of luciferase gene expression) [3]: 9.74 fold
47 | N5_9C12 (DNA CTGGGGAGTCCT; chemistry not given here) | 1094.3 fold | –
48 | N2_2B11 (CTGGGGAGTCCTTCATGC; chemistry not given here) | – | Fold (induction of luciferase gene expression) [2]: 1.2 fold
49 | N5_7B7 (CTGGGGAGTCCT; chemistry not given here) | 1046.3 fold | –
50 | N5_1D4 (CTGGGGAGTCCT; chemistry not given here) | 522.9 fold | –
51 | N1_2D7 (CTGGGGAGTCCTTCATGCGGGGC; chemistry not given here) | – | Fold (induction of luciferase gene expression) [3]: 2.16 fold
52 | N5_1G11 (CTGGGGAGTCCT; chemistry not given here) | 789.0 fold | –

Row | Substance | Fold (induction of luciferase gene expression) [1] | other results
53 | N5_1F3 (CTGGGGAGTCCT; chemistry not given here) | 212.8 fold | –
54 | N5_7F6 (DNA CTGGGGAGTCCT; chemistry not given here) | 898.5 fold | –
55 | N5_2F10 (CTGGGGAGTCCT; chemistry not given here) | 1014.6 fold | –
56 | N2_2F7 (DNA CTGGGGAGTCCTTCATGC; chemistry not given here) | – | Fold (induction of luciferase gene expression) [2]: 1.0 fold
57 | N5_5D7 (CTGGGGAGTCCT; chemistry not given here) | 769.4 fold | –
58 | N2_2D6 (DNA CTGGGGAGTCCTTCATGC; chemistry not given here) | – | Fold (induction of luciferase gene expression) [2]: 1.1 fold
59 | N5_1B2 (CTGGGGAGTCCT; chemistry not given here) | 747.7 fold | –
60 | N5_1B9 (CTGGGGAGTCCT; chemistry not given here) | 941.5 fold | –
61 | N5_11G4 (CTGGGGAGTCCT; chemistry not given here) | 931.9 fold | –
62 | N5_1H2 (CTGGGGAGTCCT; chemistry not given here) | 386.6 fold | –
63 | N5_7A11 (CTGGGGAGTCCT; chemistry not given here) | 941.2 fold | –
64 | N5_7G7 (DNA CTGGGGAGTCCT; chemistry not given here) | 952.9 fold | –
65 | N2_2D5 (DNA CTGGGGAGTCCTTCATGC; chemistry not given here) | – | Fold (induction of luciferase gene expression) [2]: 0.6 fold
66 | N5_14D10 (CTGGGGAGTCCT; chemistry not given here) | 950.5 fold | –
67 | N5_13D1 (CTGGGGAGTCCT; chemistry not given here) | 722.9 fold | –
68 | N2_2C5 (CTGGGGAGTCCTTCATGC; chemistry not given here) | – | Fold (induction of luciferase gene expression) [2]: 1.0 fold
69 | N5_7D7 (DNA CTGGGGAGTCCT; chemistry not given here) | 105.5 fold | –
70 | N2_2H3 (CTGGGGAGTCCTTCATGC; chemistry not given here) | – | Fold (induction of luciferase gene expression) [2]: 1.0 fold
71 | N5_13E8 (CTGGGGAGTCCT; chemistry not given here) | 2096.6 fold | –
72 | N5_1E12 (CTGGGGAGTCCT; chemistry not given here) | 1588.2 fold | –
73 | N2_2E7 (DNA CTGGGGAGTCCTTCATGC; chemistry not given here) | – | Fold (induction of luciferase gene expression) [2]: 1.1 fold
74 | N2_2E12 (DNA CTGGGGAGTCCTTCATGC; chemistry not given here) | – | Fold (induction of luciferase gene expression) [2]: 1.3 fold
75 | N5_7D5 (DNA CTGGGGAGTCCT; chemistry not given here) | 1182.3 fold | –
76 | N2_2G6 (DNA CTGGGGAGTCCTTCATGC; chemistry not given here) | – | Fold (induction of luciferase gene expression) [2]: 1.1 fold
77 | N5_7C12 (CTGGGGAGTCCT; chemistry not given here) | 628.9 fold | –
